As usually defined, the IC50 is the concentration at which inhibition is half-maximal.

The record followed here is BindingDB's records for doi:10.1021/jm050256l (Umr 8525 Cnrs-Universit&#233, 2005).

The target in the test is T1, Glutathione reductase, mitochondrial (Homo sapiens, UniProt P00390).
T1 sequence (P00390 whole entry): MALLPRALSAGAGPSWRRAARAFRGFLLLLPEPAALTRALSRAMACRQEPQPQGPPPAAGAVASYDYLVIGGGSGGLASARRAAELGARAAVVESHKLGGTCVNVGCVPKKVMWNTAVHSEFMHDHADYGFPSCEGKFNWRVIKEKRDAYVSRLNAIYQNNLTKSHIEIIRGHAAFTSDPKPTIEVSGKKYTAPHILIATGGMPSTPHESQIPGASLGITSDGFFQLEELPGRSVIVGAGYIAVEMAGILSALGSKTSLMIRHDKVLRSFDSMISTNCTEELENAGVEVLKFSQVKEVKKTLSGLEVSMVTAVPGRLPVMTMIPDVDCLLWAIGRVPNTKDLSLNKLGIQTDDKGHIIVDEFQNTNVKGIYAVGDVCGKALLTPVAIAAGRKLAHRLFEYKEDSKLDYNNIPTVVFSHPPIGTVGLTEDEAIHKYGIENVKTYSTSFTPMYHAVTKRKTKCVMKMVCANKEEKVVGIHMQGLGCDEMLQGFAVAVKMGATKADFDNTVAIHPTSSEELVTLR
Kind of test: Inhibitory concentration against human glutathione reductase.

On to `O=C(Cc1ccc2ccc(NC(=O)C[N]3CC[NH][Pt]3([Cl])[Cl])cc2c1)NNC(=O)c1ccc([N+](=O)[O-])o1` [2-(2-Amino-ethylamino)-N-(7-{2-[N'-(5-nitro-furan-2-carbonyl)-hydrazino]-2-oxo-ethyl}-naphthalen-2-yl)-acetamide; compound with GENERIC INORGANIC NEUTRAL COMPONENT], for which the IC50 stood at 1000 nM.
